Assay results: a compilation of properties of binary mixtures (doi:10.1007/s10953-013-9990-0)

Test: xn = mol fraction of the nth substance listed
Conditions: 101 kPa

CCCC[n+]1cccc(C)c1.O=S(=O)([N-]S(=O)(=O)C(F)(F)F)C(F)(F)F + CC(C)O
speed of sound [m/s]
Conditions	298.15 K	303.15 K	308.15 K
x2 = 0	1248.3	1237.1	1226
x2 = 0.0534	1245.3	1234.1	1222.2
x2 = 0.1034	–	1231	1219.8
x2 = 0.1577	–	1227.4	1216.1
x2 = 0.1756	1237	1225.7	1214.3
x2 = 0.3062	1227.4	1215.8	1204.2
x2 = 0.3957	1220.8	1209	1197.1
x2 = 0.51	1208.6	1197.3	1185.3
x2 = 0.6002	1197.7	1185.3	1173
x2 = 0.7046	1182.1	1169.3	1156.5
x2 = 0.8006	–	–	1135.4
x2 = 0.8988	–	1129.5	1115.2

CCCC[N+]1(C)CCCC1.O=S(=O)([N-]S(=O)(=O)C(F)(F)F)C(F)(F)F + CCO
speed of sound [m/s]
Conditions	298.15 K	303.15 K	308.15 K
x2 = 0	1269.3	1258.2	1247.1
x2 = 0.0586	1266.6	1255.3	1244.2
x2 = 0.1981	1258.6	1247.2	1235.9
x2 = 0.2834	1252.8	1241.3	1229.9
x2 = 0.4449	1238.4	1226.6	1215
x2 = 0.5133	1230.8	1218.9	1207.1
x2 = 0.6012	1219.2	–	–
x2 = 0.7078	–	1189.2	1176.8
x2 = 0.7929	1184.8	1171.6	–
x2 = 0.8997	1158.2	1144	1129.8
x2 = 0.9492	–	1133.2	–

CCCC[N+]1(C)CCCC1.O=S(=O)([N-]S(=O)(=O)C(F)(F)F)C(F)(F)F + CCCO
speed of sound [m/s]
Conditions	x2 = 0	x2 = 0.0545	x2 = 0.0931	x2 = 0.1903	x2 = 0.2935	x2 = 0.3972	x2 = 0.5916	x2 = 0.7837	x2 = 0.8975	x2 = 0.9472
298.15 K	1269.3	1267	1264.9	1259.7	–	1246	1230	1201.2	1190.9	–
303.15 K	1258.1	–	1253.5	1248.2	1241.7	1234.2	–	1188	1176.4	1178
308.15 K	1247.1	1244.4	1242.3	1236.9	1230.2	1222.5	1206	1175	1162	1162.7
